Source: US8394789B2, “(Dihydro)pyrrolo[2,1-α]isoquinolines” (MSD Oss B.V., priority 2008, dated 2013)

Target: T1, human FSH receptor (Homo sapiens, UniProt P23945)
T1 construct: expressed in transfected cells
T1 sequence (P23945 18-695): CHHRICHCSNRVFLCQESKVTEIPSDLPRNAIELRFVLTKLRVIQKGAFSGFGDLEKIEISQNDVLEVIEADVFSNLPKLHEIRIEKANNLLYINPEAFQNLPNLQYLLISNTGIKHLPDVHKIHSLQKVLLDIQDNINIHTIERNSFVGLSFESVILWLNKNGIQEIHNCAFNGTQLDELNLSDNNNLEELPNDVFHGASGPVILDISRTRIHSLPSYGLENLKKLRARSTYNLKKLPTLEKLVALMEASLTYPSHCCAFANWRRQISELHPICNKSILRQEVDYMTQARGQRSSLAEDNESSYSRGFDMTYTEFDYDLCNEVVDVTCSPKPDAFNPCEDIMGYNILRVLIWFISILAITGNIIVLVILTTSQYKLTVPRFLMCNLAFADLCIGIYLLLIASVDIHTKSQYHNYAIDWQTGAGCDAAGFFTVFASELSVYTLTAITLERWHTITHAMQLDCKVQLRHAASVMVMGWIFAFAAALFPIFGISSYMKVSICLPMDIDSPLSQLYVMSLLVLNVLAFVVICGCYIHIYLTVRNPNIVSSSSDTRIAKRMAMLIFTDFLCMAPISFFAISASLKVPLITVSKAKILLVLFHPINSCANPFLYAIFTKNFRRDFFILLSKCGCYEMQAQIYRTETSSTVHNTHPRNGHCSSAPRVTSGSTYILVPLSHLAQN
Assay: hFSHRago (CHO luc): agonistic activity at the human FSH receptor expressed in CHO cells, CRE-luciferase reporter
Assay type: cell-based
Conditions: CHO cells stably transfected with human FSH receptor and CRE/luciferase reporter; 4 hours of incubation

Structure (SMILES)	EC50 [nM]
CCC1CCCN1C(=O)c1cc(-c2cccs2)c2n1CCc1cc(OC)c(OC(C)C)cc1-2 (stereo not drawn) [Example 27, (2-Ethyl-pyrrolidin-1-yl)-(9-isopropoxy-8-methoxy-1-thiophen-2-yl-5,6-dihydro-pyrrolo[2,1-α]isoquinolin-3-yl)-methanone]	16.2
COc1cc2c(c(OC)c1)-c1c(-c3ccsc3)cc(C(=O)N(C)C(C)(C)C)n1CC2 [Example 120, 8,10-Dimethoxy-1-thiophen-3-yl-5,6-dihydro-pyrrolo[2,1-α]isoquinoline-3-carboxylic acid tert-butyl-methyl-amide]	699
CN(C(=O)c1cc(-c2cccs2)c2n1CCc1ccc(N3CCCC3=O)cc1-2)C(C)(C)C [Example 88, 9-(2-Oxo-pyrrolidin-1-yl)-1-thiophen-2-yl-5,6-dihydro-pyrrolo[2,1-α]isoquinoline-3-carboxylic acid tert-butyl-methyl-amide]	310
COc1cc2c(cc1C(=O)N1CCOCC1)-c1c(-c3cccs3)cc(C(=O)N(C)C(C)(C)C)n1CC2 [Example 86]	69.4
COc1cc2c(cc1OC(C)C)-c1c(-c3nnn[nH]3)cc(C(=O)N(C)C(C)(C)C)n1CC2 [Example 38, 9-Isopropoxy-8-methoxy-1-(1H-tetrazol-5-yl)-5,6-dihydro-pyrrolo[2,1-α]isoquinoline-3-carboxylic acid tert-butyl-methyl-amide]	1640
COc1cc2c(cc1N)-c1c(-c3cccs3)cc(C(=O)N(C)C(C)(C)C)n1CC2 [Example 95, 9-Amino-8-methoxy-1-thiophen-2-yl-5,6-dihydro-pyrrolo[2,1-α]isoquinoline-3-carboxylic acid tert-butyl-methyl-amide]	44.8
COc1cc2c(cc1OC(C)C)-c1c(-c3cccs3)cc(C(=O)N(C)N3CCCC3)n1CC2 [Example 32, 9-Isopropoxy-8-methoxy-1-thiophen-2-yl-5,6-dihydro-pyrrolo[2,1-α]isoquinoline-3-carboxylic acid methyl-pyrrolidin-1-yl-amide]	55.2
COc1cc2c(cc1OC(C)C)-c1c(-c3cccs3)c(Cl)c(C(=O)N3CCCN(C(C)=O)CC3)n1CC2 [Example 12b, 1-[4-(2-Chloro-9-isopropoxy-8-methoxy-1-thiophen-2-yl-5,6-dihydro-pyrrolo[2,1-α]isoquinoline-3-carbonyl)-[1,4]diazepan-1-yl]-ethanone]	1.9
COc1cc2c(cc1OC(C)C)-c1c(-c3cccs3)cc(C(=O)N3CCCN(C(=O)C4CCCO4)CC3)n1CC2 (stereo not drawn) [Example 1, (9-Isopropoxy-8-methoxy-1-thiophen-2-yl-5,6-dihydro-pyrrolo[2,1-α]isoquinolin-3-yl)-[4-(tetrahydro-furan-2-carbonyl)-[1,4]diazepan-1-yl]-methanone]	0.9
COc1cc2c(cc1OCCCN=[N+]=[N-])-c1c(-c3cccs3)cc(C(=O)N(C)C(C)(C)C)n1CC2 [Example 70f, 9-(3-Azido-propoxy)-8-methoxy-1-thiophen-2-yl-5,6-dihydro-pyrrolo[2,1-α]isoquinoline-3-carboxylic acid tert-butyl-methyl-amide]	10.9
COc1cc2c(cc1OC(C)C)-c1c(-c3cccs3)c(C#N)c(C(=O)N3CCCN(C(=O)C4CCC4)CC3)n1CC2 [Example 7d, 3-(4-Cyclobutanecarbonyl-[1,4]diazepane-1-carbonyl)-9-isopropoxy-8-methoxy-1-thiophen-2-yl-5,6-dihydro-pyrrolo[2,1-α]isoquinoline-2-carbonitrile]	0.3
CCN(C(=O)c1cc(-c2ccsc2)c2n1CCc1cc(OC)c(OC)c(F)c1-2)C(C)C [Example 116, 10-Fluoro-8,9-dimethoxy-1-thiophen-3-yl-5,6-dihydro-pyrrolo[2,1-α]isoquinoline-3-carboxylic acid ethyl-isopropyl-amide]	318
COc1cc2c(cc1OCCCO)-c1c(-c3cccs3)cc(C(=O)N(C)C(C)(C)C)n1CC2 [Example 70d, 9-(3-Hydroxy-propoxy)-8-methoxy-1-thiophen-2-yl-5,6-dihydro-pyrrolo[2,1-α]iso-quinoline-3-carboxylic acid tert-butyl-methyl-amide]	1.3
